Measured values published in the kinase profiling compilation of Christmann-Franck et al. (2016).

Key:
GSK3B (human) = GSK3B (human) (UniProt P49841); experiment: radiometric filter-binding kinase assay
MAP3K7 (human) = MAP3K7 (human) (UniProt O43318); experiment: radiometric filter-binding kinase assay
MAPK8 (human) = MAPK8 (human) (UniProt P45983); experiment: radiometric filter-binding kinase assay
[1] = tested on: ABL1 (human), P00519 [M351T]; experiment: KINOMEscan competition binding; settings: compound 1.0 µM
AKT1 (human) = AKT1 (human) (UniProt P31749); experiment: KINOMEscan competition binding; settings: compound 1.0 µM
BLK (human) = BLK (human) (UniProt P51451); experiment: KINOMEscan competition binding; settings: compound 1.0 µM
BRSK2 (human) = BRSK2 (human) (UniProt Q8IWQ3); experiment: KINOMEscan competition binding; settings: compound 1.0 µM
CAMK2G (human) = CAMK2G (human) (UniProt Q13555); experiment: KINOMEscan competition binding; settings: compound 1.0 µM
CSNK1D (human) = CSNK1D (human) (UniProt P48730); experiment: KINOMEscan competition binding; settings: compound 1.0 µM
DAPK1 (human) = DAPK1 (human) (UniProt P53355); experiment: KINOMEscan competition binding; settings: compound 1.0 µM
DAPK3 (human) = DAPK3 (human) (UniProt O43293); experiment: KINOMEscan competition binding; settings: compound 1.0 µM
[2] = tested on: EGFR (human), P00533 [752-759 del]; experiment: KINOMEscan competition binding; settings: compound 1.0 µM
EPHB6 (human) = EPHB6 (human) (UniProt O15197); experiment: KINOMEscan competition binding; settings: compound 1.0 µM
FES (human) = FES (human) (UniProt P07332); experiment: KINOMEscan competition binding; settings: compound 1.0 µM
FLT1 (human) = FLT1 (human) (UniProt P17948); experiment: KINOMEscan competition binding; settings: compound 1.0 µM
GRK1 (human) = GRK1 (human) (UniProt Q15835); experiment: KINOMEscan competition binding; settings: compound 1.0 µM
GSK3A (human) = GSK3A (human) (UniProt P49840); experiment: KINOMEscan competition binding; settings: compound 1.0 µM
HIPK4 (human) = HIPK4 (human) (UniProt Q8NE63); experiment: KINOMEscan competition binding; settings: compound 1.0 µM
ICK (human) = ICK (human) (UniProt Q9UPZ9); experiment: KINOMEscan competition binding; settings: compound 1.0 µM
[3] = tested on: KIT (human), P10721 [D816H]; experiment: KINOMEscan competition binding; settings: compound 1.0 µM
LCK (human) = LCK (human) (UniProt P06239); experiment: KINOMEscan competition binding; settings: compound 1.0 µM
LIMK1 (human) = LIMK1 (human) (UniProt P53667); experiment: KINOMEscan competition binding; settings: compound 1.0 µM
LIMK1 (human), sequence (P53667 whole entry, looked up): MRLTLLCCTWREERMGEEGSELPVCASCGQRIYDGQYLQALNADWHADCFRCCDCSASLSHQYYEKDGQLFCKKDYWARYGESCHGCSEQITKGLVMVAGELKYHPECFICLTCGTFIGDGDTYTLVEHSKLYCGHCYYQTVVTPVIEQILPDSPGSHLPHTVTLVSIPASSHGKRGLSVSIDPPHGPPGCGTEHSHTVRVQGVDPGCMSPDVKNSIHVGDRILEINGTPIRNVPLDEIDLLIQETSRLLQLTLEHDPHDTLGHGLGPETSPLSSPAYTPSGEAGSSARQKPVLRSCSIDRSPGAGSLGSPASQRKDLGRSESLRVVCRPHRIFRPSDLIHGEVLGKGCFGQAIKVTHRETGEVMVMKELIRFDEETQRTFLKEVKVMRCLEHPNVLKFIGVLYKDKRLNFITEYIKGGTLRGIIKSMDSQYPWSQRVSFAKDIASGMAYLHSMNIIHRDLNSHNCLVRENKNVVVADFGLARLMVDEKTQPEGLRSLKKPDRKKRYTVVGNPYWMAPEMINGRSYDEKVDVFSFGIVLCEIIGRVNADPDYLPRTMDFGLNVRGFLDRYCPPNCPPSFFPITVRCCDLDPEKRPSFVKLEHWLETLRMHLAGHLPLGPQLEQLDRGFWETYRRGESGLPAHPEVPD

MAP2K7 (human) = MAP2K7 (human) (UniProt O14733); experiment: KINOMEscan competition binding; settings: compound 1.0 µM
MAP3K15 (human) = MAP3K15 (human) (UniProt Q6ZN16); experiment: KINOMEscan competition binding; settings: compound 1.0 µM
MAPK10 (human) = MAPK10 (human) (UniProt P53779); experiment: KINOMEscan competition binding; settings: compound 1.0 µM
MAPK4 (human) = MAPK4 (human) (UniProt P31152); experiment: KINOMEscan competition binding; settings: compound 1.0 µM
MARK4 (human) = MARK4 (human) (UniProt Q96L34); experiment: KINOMEscan competition binding; settings: compound 1.0 µM
MARK4 (human), sequence (Q96L34 whole entry, looked up): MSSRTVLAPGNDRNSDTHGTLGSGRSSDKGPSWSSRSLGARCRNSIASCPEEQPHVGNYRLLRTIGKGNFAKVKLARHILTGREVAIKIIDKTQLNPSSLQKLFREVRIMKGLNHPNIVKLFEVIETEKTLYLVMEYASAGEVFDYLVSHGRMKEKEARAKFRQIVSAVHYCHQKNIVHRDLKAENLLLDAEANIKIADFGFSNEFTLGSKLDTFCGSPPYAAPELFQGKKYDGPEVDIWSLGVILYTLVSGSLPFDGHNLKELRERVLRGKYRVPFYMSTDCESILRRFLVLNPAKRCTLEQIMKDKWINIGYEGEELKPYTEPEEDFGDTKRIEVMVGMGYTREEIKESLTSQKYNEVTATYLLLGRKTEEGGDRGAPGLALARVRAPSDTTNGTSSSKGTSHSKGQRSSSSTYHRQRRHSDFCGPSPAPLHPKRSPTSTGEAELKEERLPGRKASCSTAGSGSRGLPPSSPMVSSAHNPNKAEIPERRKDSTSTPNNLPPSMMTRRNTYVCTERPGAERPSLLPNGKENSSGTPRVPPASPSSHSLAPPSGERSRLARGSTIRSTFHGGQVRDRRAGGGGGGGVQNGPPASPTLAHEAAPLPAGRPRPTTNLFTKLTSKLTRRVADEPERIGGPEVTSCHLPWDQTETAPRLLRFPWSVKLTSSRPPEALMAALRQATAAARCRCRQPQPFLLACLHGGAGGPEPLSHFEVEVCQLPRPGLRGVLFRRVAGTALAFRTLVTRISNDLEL

MKNK1 (human) = MKNK1 (human) (UniProt Q9BUB5); experiment: KINOMEscan competition binding; settings: compound 1.0 µM
MST1R (human) = MST1R (human) (UniProt Q04912); experiment: KINOMEscan competition binding; settings: compound 1.0 µM
MYLK (human) = MYLK (human) (UniProt Q15746); experiment: KINOMEscan competition binding; settings: compound 1.0 µM
PAK3 (human) = PAK3 (human) (UniProt O75914); experiment: KINOMEscan competition binding; settings: compound 1.0 µM
[4] = tested on: PIK3CA (human), P42336 [E542K]; experiment: KINOMEscan competition binding; settings: compound 1.0 µM
PIK3CA (human), P42336 [E542K], sequence (P42336 whole entry E542K, looked up): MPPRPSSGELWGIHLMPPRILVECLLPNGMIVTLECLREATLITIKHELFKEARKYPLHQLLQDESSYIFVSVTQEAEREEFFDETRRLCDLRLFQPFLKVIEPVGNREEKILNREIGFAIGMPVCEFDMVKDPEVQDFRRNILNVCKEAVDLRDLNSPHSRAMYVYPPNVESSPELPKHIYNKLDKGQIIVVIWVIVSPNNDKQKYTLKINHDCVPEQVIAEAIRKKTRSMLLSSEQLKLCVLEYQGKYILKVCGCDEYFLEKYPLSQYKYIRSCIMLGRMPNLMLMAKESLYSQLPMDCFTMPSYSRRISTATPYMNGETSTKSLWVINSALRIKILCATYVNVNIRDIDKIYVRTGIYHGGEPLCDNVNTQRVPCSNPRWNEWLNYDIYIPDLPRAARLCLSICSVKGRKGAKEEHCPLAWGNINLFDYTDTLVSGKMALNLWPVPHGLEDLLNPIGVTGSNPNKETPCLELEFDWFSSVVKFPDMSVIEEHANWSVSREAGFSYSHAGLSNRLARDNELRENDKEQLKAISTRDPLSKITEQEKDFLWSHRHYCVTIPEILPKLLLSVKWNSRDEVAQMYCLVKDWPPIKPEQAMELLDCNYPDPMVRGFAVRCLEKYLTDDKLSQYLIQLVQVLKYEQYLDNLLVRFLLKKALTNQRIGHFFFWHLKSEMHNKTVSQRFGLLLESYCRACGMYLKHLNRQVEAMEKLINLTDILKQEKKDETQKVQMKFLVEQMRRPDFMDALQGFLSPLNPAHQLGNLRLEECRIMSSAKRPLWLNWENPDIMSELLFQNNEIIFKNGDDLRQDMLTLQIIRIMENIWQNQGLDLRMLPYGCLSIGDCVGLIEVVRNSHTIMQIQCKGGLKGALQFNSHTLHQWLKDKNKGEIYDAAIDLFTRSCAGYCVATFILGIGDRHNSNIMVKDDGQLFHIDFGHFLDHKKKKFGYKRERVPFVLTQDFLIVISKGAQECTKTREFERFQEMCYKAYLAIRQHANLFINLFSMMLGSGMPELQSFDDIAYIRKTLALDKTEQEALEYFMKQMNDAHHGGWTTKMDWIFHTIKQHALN

[5] = tested on: PIK3CA (human), P42336 [M1043I]; experiment: KINOMEscan competition binding; settings: compound 1.0 µM
PIK3CA (human), P42336 [M1043I], sequence (P42336 whole entry M1043I, looked up): as the sequence (P42336 whole entry E542K, looked up) above, with K542E, M1043I counted along it

PIM1 (human) = PIM1 (human) (UniProt P11309); experiment: KINOMEscan competition binding; settings: compound 1.0 µM
PKN3 (M.tuberculosis) = PKN3 (M.tuberculosis) (UniProt Q6P5Z2); experiment: KINOMEscan competition binding; settings: compound 1.0 µM
PRKACA (human) = PRKACA (human) (UniProt P17612); experiment: KINOMEscan competition binding; settings: compound 1.0 µM
PRKD1 (human) = PRKD1 (human) (UniProt Q15139); experiment: KINOMEscan competition binding; settings: compound 1.0 µM
PRPF4B (human) = PRPF4B (human) (UniProt Q13523); experiment: KINOMEscan competition binding; settings: compound 1.0 µM
ROS1 (human) = ROS1 (human) (UniProt P08922); experiment: KINOMEscan competition binding; settings: compound 1.0 µM
ROS1 (human), sequence (P08922 whole entry, looked up): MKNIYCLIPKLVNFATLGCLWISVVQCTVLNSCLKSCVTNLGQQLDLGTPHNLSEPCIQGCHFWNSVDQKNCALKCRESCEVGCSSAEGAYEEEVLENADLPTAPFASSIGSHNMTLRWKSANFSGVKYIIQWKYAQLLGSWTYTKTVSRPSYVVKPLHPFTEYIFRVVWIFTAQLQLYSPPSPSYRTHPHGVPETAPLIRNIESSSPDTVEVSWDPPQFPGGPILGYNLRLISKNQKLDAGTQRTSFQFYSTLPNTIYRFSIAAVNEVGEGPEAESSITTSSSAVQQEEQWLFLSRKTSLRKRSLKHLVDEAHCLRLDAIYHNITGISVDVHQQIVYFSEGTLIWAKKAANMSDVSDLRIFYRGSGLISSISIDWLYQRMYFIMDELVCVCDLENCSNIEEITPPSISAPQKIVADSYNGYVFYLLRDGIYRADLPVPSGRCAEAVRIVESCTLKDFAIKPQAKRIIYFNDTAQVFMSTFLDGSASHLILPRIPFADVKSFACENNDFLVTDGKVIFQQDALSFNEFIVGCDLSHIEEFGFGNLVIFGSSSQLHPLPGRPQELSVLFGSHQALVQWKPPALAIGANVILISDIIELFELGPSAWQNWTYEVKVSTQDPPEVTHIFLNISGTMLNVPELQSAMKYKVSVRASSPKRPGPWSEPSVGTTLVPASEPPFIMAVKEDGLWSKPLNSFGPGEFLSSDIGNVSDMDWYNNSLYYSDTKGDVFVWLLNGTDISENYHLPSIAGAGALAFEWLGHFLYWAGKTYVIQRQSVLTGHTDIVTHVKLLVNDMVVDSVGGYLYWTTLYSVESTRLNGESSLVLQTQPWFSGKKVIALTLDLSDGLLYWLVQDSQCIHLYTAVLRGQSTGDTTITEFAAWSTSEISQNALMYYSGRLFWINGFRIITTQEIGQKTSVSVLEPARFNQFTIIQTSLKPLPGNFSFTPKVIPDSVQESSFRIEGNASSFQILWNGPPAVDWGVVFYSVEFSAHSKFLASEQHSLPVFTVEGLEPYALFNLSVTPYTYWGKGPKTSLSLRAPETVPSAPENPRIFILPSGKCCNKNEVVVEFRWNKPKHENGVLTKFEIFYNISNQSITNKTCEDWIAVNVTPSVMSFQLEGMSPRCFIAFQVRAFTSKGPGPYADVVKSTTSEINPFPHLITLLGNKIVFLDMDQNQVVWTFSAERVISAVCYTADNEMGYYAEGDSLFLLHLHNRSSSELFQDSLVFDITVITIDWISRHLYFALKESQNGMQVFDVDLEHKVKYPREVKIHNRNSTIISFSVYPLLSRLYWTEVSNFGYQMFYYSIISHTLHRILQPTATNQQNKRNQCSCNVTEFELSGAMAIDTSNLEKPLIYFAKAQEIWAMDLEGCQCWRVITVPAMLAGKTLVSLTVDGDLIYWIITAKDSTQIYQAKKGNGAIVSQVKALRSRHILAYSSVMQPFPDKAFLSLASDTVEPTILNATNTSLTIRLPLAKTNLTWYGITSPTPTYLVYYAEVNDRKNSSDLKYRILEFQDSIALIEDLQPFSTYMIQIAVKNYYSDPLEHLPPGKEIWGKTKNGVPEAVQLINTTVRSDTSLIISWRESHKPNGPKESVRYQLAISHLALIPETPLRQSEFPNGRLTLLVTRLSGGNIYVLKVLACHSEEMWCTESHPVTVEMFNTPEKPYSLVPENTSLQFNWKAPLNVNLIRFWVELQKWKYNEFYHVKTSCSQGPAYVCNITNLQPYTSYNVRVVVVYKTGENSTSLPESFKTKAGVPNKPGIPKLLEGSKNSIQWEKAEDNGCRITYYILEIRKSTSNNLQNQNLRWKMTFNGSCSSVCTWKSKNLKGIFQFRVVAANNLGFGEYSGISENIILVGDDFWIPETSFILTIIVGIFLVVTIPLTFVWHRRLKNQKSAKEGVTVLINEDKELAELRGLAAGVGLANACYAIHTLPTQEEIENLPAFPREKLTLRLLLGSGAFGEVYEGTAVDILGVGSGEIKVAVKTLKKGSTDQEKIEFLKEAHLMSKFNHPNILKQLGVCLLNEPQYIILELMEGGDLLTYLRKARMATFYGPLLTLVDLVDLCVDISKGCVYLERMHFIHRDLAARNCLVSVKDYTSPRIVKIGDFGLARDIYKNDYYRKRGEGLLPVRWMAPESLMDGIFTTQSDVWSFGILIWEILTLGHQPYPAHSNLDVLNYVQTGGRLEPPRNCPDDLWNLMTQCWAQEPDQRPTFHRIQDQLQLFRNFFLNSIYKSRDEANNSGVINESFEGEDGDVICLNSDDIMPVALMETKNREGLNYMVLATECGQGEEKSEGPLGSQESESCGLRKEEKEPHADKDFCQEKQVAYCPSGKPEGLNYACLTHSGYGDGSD

SIK1 (human) = SIK1 (human) (UniProt P57059); experiment: KINOMEscan competition binding; settings: compound 1.0 µM
STK32B (human) = STK32B (human) (UniProt Q9NY57); experiment: KINOMEscan competition binding; settings: compound 1.0 µM
TGFBR2 (human) = TGFBR2 (human) (UniProt P37173); experiment: KINOMEscan competition binding; settings: compound 1.0 µM

## CN(C)C/C=C/C(=O)Nc1cccc(C(=O)Nc2ccc(Nc3nccc(/C(C#N)=C4\Nc5ccccc5S4)n3)cc2)c1
GSK3B (human)
  IC50: 84 nM
MAP3K7 (human)
  IC50: 866 nM
MAPK8 (human)
  IC50: 327 nM
[1]
  kinase still bound, per cent of control: 69%
AKT1 (human)
  kinase still bound, per cent of control: 6.6%
BLK (human)
  kinase still bound, per cent of control: 100%
BRSK2 (human)
  kinase still bound, per cent of control: 100%
CAMK2G (human)
  kinase still bound, per cent of control: 100%
CSNK1D (human)
  kinase still bound, per cent of control: 26%
DAPK1 (human)
  kinase still bound, per cent of control: 100%
DAPK3 (human)
  kinase still bound, per cent of control: 100%
[2]
  kinase still bound, per cent of control: 95%
EPHB6 (human)
  kinase still bound, per cent of control: 49%
FES (human)
  kinase still bound, per cent of control: 100%
FLT1 (human)
  kinase still bound, per cent of control: 32%
GRK1 (human)
  kinase still bound, per cent of control: 100%
GSK3A (human)
  kinase still bound, per cent of control: 59%
HIPK4 (human)
  kinase still bound, per cent of control: 6%
ICK (human)
  kinase still bound, per cent of control: 100%
[3]
  kinase still bound, per cent of control: 100%
LCK (human)
  kinase still bound, per cent of control: 100%
LIMK1 (human)
  kinase still bound, per cent of control: 100%
MAP2K7 (human)
  kinase still bound, per cent of control: 100%
MAP3K15 (human)
  kinase still bound, per cent of control: 100%
MAPK10 (human)
  kinase still bound, per cent of control: 0.05%
MAPK4 (human)
  kinase still bound, per cent of control: 100%
MARK4 (human)
  kinase still bound, per cent of control: 100%
MKNK1 (human)
  kinase still bound, per cent of control: 100%
MST1R (human)
  kinase still bound, per cent of control: 100%
MYLK (human)
  kinase still bound, per cent of control: 100%
PAK3 (human)
  kinase still bound, per cent of control: 84%
[4]
  kinase still bound, per cent of control: 100%
[5]
  kinase still bound, per cent of control: 100%
PIM1 (human)
  kinase still bound, per cent of control: 100%
PKN3 (M.tuberculosis)
  kinase still bound, per cent of control: 53%
PRKACA (human)
  kinase still bound, per cent of control: 88%
PRKD1 (human)
  kinase still bound, per cent of control: 100%
PRPF4B (human)
  kinase still bound, per cent of control: 100%
ROS1 (human)
  kinase still bound, per cent of control: 58%
SIK1 (human)
  kinase still bound, per cent of control: 100%
STK32B (human)
  kinase still bound, per cent of control: 99%
TGFBR2 (human)
  kinase still bound, per cent of control: 100%
